Results as given in ChEMBL document CHEMBL6120958, “A Highly Atom-Efficient Prodrug Approach to Generate Synergy between H2S and Nonsteroidal Anti-inflammatory Drugs and Improve Safety” (J Med Chem, 2024).

Tests used:
[1] = Stability of the compound in PBS at 500 uM measured within 144 hrs at pH 7.4 at 37 degC by HPLC analysis; type: physicochemical; conditions: buffer, pH 7.4, 144 h
[2] = Stability of the compound in rat plasma assessed as half life by LC-MS/MS analysis; type: ADME, cell-free
[3] = target: T1, Prostaglandin G/H synthase 1 (Ovis aries, UniProt P05979); test: Inhibition of ovine COX1 assessed as reduction in PGF2alpha production using arachidonic acid as substrate preincubated with enzyme for 10 mins followed by substrate addition and measured after 2 mins by ELISA
T1 sequence (P05979 whole entry): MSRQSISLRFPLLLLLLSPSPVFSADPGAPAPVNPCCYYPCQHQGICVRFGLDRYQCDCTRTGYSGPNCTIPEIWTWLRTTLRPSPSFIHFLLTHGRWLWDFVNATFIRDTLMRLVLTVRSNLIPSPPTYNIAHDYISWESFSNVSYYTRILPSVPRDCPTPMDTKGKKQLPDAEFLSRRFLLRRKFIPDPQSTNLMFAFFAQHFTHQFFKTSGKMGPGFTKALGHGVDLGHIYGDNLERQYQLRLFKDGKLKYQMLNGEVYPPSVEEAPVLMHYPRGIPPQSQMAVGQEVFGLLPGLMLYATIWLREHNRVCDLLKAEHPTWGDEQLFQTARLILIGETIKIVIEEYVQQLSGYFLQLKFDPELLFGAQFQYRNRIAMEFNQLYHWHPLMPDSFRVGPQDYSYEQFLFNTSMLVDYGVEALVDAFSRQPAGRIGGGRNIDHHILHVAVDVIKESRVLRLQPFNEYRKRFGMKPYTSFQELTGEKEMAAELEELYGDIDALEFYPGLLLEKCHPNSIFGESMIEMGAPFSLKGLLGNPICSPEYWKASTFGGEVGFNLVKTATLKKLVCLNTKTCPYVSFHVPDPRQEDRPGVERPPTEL

[4] = Stability of the compound in PBS at 500 uM measured for 3 months at pH 7.4 at -20 degC by HPLC analysis; type: physicochemical; conditions: buffer, pH 7.4, 2190 h
Liver carboxylesterase [5] = target: T2, Liver carboxylesterase (Sus scrofa, UniProt Q29550); test: Prodrug release in PBS assessed as porcine liver esterase-mediated hydrolysis by measuring peak H2S concentration at 500 uM measured at pH 7.4 after 90 mins by methylene blue method; type: ADME; conditions: pig, isolated protein, pH 7.4, 1.5 h
T2 sequence (Q29550 whole entry): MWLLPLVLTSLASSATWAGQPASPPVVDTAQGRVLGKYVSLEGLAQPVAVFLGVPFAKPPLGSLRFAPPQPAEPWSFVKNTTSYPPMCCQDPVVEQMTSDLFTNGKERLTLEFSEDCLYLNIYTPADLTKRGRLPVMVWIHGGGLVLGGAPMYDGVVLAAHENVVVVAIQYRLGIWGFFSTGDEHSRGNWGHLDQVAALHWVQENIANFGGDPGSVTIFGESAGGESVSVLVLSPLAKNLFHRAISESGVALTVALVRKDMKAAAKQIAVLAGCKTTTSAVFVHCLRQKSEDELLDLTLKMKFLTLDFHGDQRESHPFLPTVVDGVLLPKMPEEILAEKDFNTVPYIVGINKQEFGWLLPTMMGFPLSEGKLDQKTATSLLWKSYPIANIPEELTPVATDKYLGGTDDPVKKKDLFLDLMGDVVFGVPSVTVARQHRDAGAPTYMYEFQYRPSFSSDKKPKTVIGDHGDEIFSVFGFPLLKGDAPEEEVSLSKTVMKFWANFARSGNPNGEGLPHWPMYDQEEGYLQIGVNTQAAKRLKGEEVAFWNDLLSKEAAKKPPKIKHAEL

Liver carboxylesterase [6] = target: T2, Liver carboxylesterase; test: Prodrug release in PBS assessed as porcine liver esterase-mediated hydrolysis by measuring half-life at 500 uM measured at pH 7.4 by HPLC analysis; type: ADME; conditions: pig, isolated protein, pH 7.4, 500 µM
Rattus norvegicus [7] = test: Prodrug release in Sprague-Dawley rat assessed as benzoic acid level in blood at 80 umol/kg, iv measured after 1 min by LC-MS/MS analysis; type: ADME, organism-based; conditions: in vivo, dose 80 µmol/kg
[8] = Stability in Sprague-Dawley rat assessed as parent compound level in blood at 80 umol/kg, iv measured after 1 min by LC-MS/MS analysis; type: ADME, organism-based; conditions: whole blood, dose 80 µmol/kg, read-out: Stability
Rattus norvegicus [9] = test: Prodrug release in Sprague-Dawley rat assessed as benzoic acid level in blood at 80 umol/kg, iv measured after 5 mins by LC-MS/MS analysis; type: ADME, organism-based; conditions: in vivo, dose 80 µmol/kg
Liver carboxylesterase [10] = target: T2, Liver carboxylesterase; test: Prodrug release in PBS assessed as porcine liver esterase-mediated hydrolysis by measuring H2S concentration at 500 uM measured at pH 7.4 after 5 hrs by methylene blue method; type: ADME; conditions: pig, isolated protein, pH 7.4, 5 h
[11] = Stability in Sprague-Dawley rat assessed as parent compound level in blood at 80 umol/kg, iv measured after 5 mins by LC-MS/MS analysis; type: ADME, organism-based; conditions: whole blood, dose 80 µmol/kg, read-out: Stability
Liver carboxylesterase [12] = target: T2, Liver carboxylesterase; test: Prodrug release in PBS assessed as porcine liver esterase-mediated hydrolysis by measuring peak H2S concentration at 500 uM measured at pH 7.4 after 80 mins by methylene blue method; type: ADME; conditions: pig, isolated protein, pH 7.4, 1.333 h
Liver carboxylesterase [13] = target: T2, Liver carboxylesterase; test: Prodrug release in PBS assessed as porcine liver esterase-mediated hydrolysis at 500 uM measured at pH 7.4 in presence of PMSF by HPLC analysis; type: ADME; conditions: pig, isolated protein, pH 7.4, 500 µM
Mus musculus = test: Prodrug release in C57BL/6J mouse assessed as increase in H2S concentration in blood at 50 umol/kg, iv measured after 15 mins by gas chromatography; type: ADME, organism-based; conditions: in vivo, 0.25 h, dose 50 µmol/kg
[14] = target: T3, Prostaglandin G/H synthase 2 (Homo sapiens, UniProt P35354); test: Inhibition of human recombinant COX2 assessed as reduction in PGF2alpha production using arachidonic acid as substrate preincubated with enzyme for 10 mins followed by substrate addition and measured after 2 mins by ELISA
T3 sequence (P35354 whole entry): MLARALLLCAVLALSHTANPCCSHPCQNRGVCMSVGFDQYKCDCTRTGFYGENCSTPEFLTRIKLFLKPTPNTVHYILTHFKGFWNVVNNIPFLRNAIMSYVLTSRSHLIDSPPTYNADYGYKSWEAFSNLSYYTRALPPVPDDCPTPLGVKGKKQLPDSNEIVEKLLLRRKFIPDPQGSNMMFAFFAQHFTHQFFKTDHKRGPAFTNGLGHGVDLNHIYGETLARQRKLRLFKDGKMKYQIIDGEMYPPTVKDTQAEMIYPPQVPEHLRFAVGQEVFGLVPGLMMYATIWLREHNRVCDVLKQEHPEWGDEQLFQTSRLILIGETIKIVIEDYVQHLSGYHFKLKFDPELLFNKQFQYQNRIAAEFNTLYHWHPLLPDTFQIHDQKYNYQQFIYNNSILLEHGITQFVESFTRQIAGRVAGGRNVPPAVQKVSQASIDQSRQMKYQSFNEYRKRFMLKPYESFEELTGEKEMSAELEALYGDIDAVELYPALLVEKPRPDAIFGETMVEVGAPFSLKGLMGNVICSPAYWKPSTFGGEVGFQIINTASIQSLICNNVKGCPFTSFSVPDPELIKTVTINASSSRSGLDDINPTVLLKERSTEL

SMILES: COc1ccc2cc([C@H](C)C(=O)[S-])ccc2c1.[Na+]
- Stability [1]: Stable
- half-life [2]: 6.73 h
- IC50 [3]: 1.3 µM
- Stability [4]: Stable

SMILES: COc1ccc2c(c1)c(CC(=O)[S-])c(C)n2C(=O)c1ccc(Cl)cc1.[Na+]
- Stability [1]: Stable
- half-life [2]: 21.3 h
- Drug metabolism (Liver carboxylesterase [5]): 29 µM
- IC50 [3]: 0.0076 µM
- t1/2 (Liver carboxylesterase [6]): 4.45 h
- Stability [4]: Stable

SMILES: O=C([S-])c1ccccc1.[Na+]
- Stability [1]: Stable
- Drug metabolism (Rattus norvegicus [7]): 46.4 µM
- concentration at 1 min [8]: 439 µM
- half-life [2]: 2.17 h
- Drug metabolism (Rattus norvegicus [9]): 78.3 µM
- Drug metabolism (Liver carboxylesterase [10]): metabolite_detected
- concentration at 5 min [11]: 113 µM
- t1/2 (Liver carboxylesterase [6]): 2.51 h
- Drug metabolism (Liver carboxylesterase [12]): 70 µM
- Drug metabolism (Liver carboxylesterase [13]): metabolite_notdetected
- Drug metabolism (Mus musculus): metabolite_detected
- Stability [4]: Stable

SMILES: O=C([S-])Cc1ccc2ccccc2c1.[Na+]
- Stability [1]: Stable
- Stability [4]: Stable

SMILES: O=C([S-])c1ccc2ccccc2c1.[Na+]
- Stability [1]: Stable
- Stability [4]: Stable

SMILES: COc1ccc(C(=O)[S-])cc1.[Na+]
- Stability [1]: Stable
- Stability [4]: Stable

SMILES: COc1ccc2cc([C@H](C)C(=O)O)ccc2c1 [NAPROXEN]
- IC50 [14]: 10.6 µM

SMILES: O=C([S-])CCc1ccccc1.[Na+]
- Stability [1]: Stable
- Stability [4]: Stable
